According to PubChem BioAssay (NCI):
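Where inhibition never reached the appropriate level, the endpoint shown equals the highest concentration tested. Otherwise, values were interpolated linearly from a five-concentration, 48-hour dose response in 96-well plates. GI50: concentration for 50% inhibition of growth. Definition used: TGI = concentration required for complete inhibition of growth.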

Columns and labels:
Experiment in all cases: NCI tumour cell line growth inhibition, 48 h
NCI/ADR-RES ovarian = tested on: NCI/ADR-RES ovarian
HOP-92 NSCLC = tested on: HOP-92 NSCLC
SW-620 colon = tested on: SW-620 colon
U251 CNS = tested on: U251 CNS
T-47D breast = tested on: T-47D breast
RPMI-8226 leukemia = tested on: RPMI-8226 leukemia
OVCAR-8 ovarian = tested on: OVCAR-8 ovarian
MALME-3M melanoma = tested on: MALME-3M melanoma
786-0 renal = tested on: 786-0 renal
SK-MEL-2 melanoma = tested on: SK-MEL-2 melanoma

Structure (SMILES) | GI50 (NCI/ADR-RES ovarian) [µM] | TGI (NCI/ADR-RES ovarian) [µM] | GI50 (HOP-92 NSCLC) [µM] | TGI (HOP-92 NSCLC) [µM] | GI50 (SW-620 colon) [µM] | TGI (SW-620 colon) [µM] | GI50 (U251 CNS) [µM] | TGI (U251 CNS) [µM] | GI50 (T-47D breast) [µM] | TGI (T-47D breast) [µM] | GI50 (RPMI-8226 leukemia) [µM] | TGI (RPMI-8226 leukemia) [µM] | GI50 (OVCAR-8 ovarian) [µM] | TGI (OVCAR-8 ovarian) [µM] | GI50 (MALME-3M melanoma) [µM] | TGI (MALME-3M melanoma) [µM] | GI50 (786-0 renal) [µM] | TGI (786-0 renal) [µM] | GI50 (SK-MEL-2 melanoma) [µM] | TGI (SK-MEL-2 melanoma) [µM]
O=C(NCCOCCOCCOCCNC(=O)c1cc2c(o1)C(=O)c1ccccc1C2=O)NC12CC3CC(CC(C3)C1)C2 | 2.96 | 10.1 | 3.08 | 10.7 | 2.35 | 7.26 | 2.04 | 5 | 1.59 | 6.02 | 1.87 | 5.63 | 1.44 | 8.34 | 0.191 | 0.489 | 2.89 | 11 | 2.15 | 5.46
Cn1c(=O)c(Oc2ccc(F)cc2F)cc2cnc(N[C@@H]3CCOC3)nc21 | > 25 | > 25 | 8.69 | > 25 | > 25 | > 25 | > 25 | > 25 | > 25 | > 25 | > 25 | > 25 | > 25 | > 25 | > 25 | > 25 | > 25 | > 25 | > 25 | > 25
O=C1C=C(OCC=C(C(F)(F)F)C(F)(F)F)c2ccccc2C1=O | 3.21 | 14.7 | 1.9 | 4.37 | 1.92 | 3.91 | 1.84 | 3.83 | 0.777 | 3.7 | 1.63 | 4.29 | 1.63 | 3.12 | 1.56 | 3.11 | 3.97 | 13.9 | 1.85 | 4.06
